“Also recorded” adds a separate entry of the source.
Experiments:
megalin M2 fragment = biological target: T1, megalin M2 fragment (Homo sapiens, UniProt P02774+P98164); assay: Microscale thermophoresis of DBP:VD-metabolite bound by megalin M2 fragment; format: binding; conditions: M2 titrated; for Kd: labelled DBP 50 nM mixed with metabolite 37.8 nM, read-out: dissociation constant Kd, megalin M2 fragment to complex DBP:vitamin D metabolite
T1 construct: megalin signal peptide (M1-G25) (N, cleaved yes); made in house
T1 sequence (P98164 1024-1429 limits assumed): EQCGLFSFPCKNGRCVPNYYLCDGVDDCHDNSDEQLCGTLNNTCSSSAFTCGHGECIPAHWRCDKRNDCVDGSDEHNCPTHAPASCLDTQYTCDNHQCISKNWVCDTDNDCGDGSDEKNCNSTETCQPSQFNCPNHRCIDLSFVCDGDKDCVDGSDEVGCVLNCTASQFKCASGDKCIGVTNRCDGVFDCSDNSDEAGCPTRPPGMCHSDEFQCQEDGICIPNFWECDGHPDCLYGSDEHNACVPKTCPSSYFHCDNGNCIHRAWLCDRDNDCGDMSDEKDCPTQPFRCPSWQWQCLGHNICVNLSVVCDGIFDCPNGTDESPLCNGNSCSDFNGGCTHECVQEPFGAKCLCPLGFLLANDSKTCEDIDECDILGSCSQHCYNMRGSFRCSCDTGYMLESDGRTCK
T1 sequence (P02774 17-474): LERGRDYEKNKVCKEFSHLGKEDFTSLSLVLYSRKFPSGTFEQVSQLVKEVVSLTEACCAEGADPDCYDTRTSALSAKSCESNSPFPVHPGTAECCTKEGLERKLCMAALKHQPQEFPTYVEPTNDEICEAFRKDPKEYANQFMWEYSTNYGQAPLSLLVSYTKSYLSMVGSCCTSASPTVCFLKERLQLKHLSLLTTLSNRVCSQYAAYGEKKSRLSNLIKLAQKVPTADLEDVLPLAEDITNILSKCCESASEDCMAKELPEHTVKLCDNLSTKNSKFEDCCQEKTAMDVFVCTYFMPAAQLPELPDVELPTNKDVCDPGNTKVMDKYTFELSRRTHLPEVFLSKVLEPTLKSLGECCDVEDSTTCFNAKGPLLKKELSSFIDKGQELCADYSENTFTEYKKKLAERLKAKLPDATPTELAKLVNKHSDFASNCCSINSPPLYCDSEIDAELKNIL
Procedure: Purified megalin M2 was titrated in different concentrations. The dissociation constant Kd was calculated for every condition. The binding affinity was assessed by the dissociation constant Kd.
(§1) Microscale Thermophoresis assay. […] Parameters: laser power, 100%; LED, 80; laser on-time, 30 seconds; laser off-time, 5 seconds; temperature, 25° C. FNorm: normalized fluorescence; Kd: dissociation constant.

DBP [1] = biological target: T2, DBP (Homo sapiens, UniProt P02774); assay: Microscale thermophoresis of DBP and vitamin D metabolites; format: binding; design: purchased Merck 345802; conditions: for binding affinity of vitamin D metabolite to DBP, in words: MST, comparison between metabolites; for Kd: NT-647 labelled DBP, metabolite titrated, read-out: dissociation constant Kd, DBP to vitamin D metabolite
T2 sequence (P02774 17-474): T1 sequence (P02774 17-474)
Procedure: The binding properties of DBP and 25(OH)VD3, 25(OH)VD2, 24,25(OH)VD and 3C-epimer of 25(OH)D3 on the one hand and megalin on the other was further examined using microscale thermophoresis. […] The vitamin D metabolites were titrated with different concentrations. The dissociation constant Kd was calculated for every interaction partner. The binding affinity was assessed via the obtained dissociation constant Kd.
as §1

albumin = albumin (Homo sapiens, UniProt P02768); conditions: cited from earlier work
Chain of albumin (P02768 25-609, species assumed): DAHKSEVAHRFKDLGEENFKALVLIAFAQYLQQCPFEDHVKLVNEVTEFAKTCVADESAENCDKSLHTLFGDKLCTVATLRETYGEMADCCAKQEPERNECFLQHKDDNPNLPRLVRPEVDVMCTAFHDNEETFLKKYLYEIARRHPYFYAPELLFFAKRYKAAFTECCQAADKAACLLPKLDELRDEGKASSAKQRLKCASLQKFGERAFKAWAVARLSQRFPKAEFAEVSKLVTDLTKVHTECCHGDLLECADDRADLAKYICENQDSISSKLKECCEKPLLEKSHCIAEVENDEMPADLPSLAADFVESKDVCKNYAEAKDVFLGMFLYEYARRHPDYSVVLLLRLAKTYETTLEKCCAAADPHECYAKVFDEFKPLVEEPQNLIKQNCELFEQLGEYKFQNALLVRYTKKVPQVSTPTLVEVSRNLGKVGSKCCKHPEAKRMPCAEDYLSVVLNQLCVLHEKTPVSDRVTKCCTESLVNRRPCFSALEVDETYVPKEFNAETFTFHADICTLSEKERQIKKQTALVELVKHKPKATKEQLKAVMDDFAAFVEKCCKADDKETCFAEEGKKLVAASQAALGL

DBP [2] = biological target: T2, DBP; conditions: cited from earlier work

Row | Molecule | binding affinity of vitamin D metabolite to DBP, in words (DBP [1]) | Kd (megalin M2 fragment) | Kd (DBP [1]) | other results
1 | C=C1CC[C@@H](O)C/C1=C/C=C1\CCC[C@]2(C)[C@@H]([C@H](C)CCCC(C)(C)O)CC[C@@H]12 [3C-epi25(OH)VD3, C3-epimer of 25-hydroxyvitamin D3] | bound most strongly |  |  | affinity of megalin M2 to DBP:metabolite complex, in words (megalin M2 fragment; labelled DBP 50 nM mixed with metabolite): very high affinity; binding affinity of vitamin D metabolite to DBP, in words (DBP [1]; listed as 3C epimer of 25(OH)D3): high binding affinity
2 | C=C1CC[C@H](O)C/C1=C/C=C1\CCC[C@]2(C)[C@@H]([C@H](C)CCC(O)C(C)(C)O)CC[C@@H]12 (stereo partly drawn) [24,25(OH)VD, 24,25-dihydroxyvitamin D] | slightly weaker; also recorded: marginally lower | 171 nM |  | 
3 | C=C1CC[C@H](O)C/C1=C/C=C1\CCC[C@]2(C)[C@@H]([C@H](C)/C=C/[C@H](C)C(C)(C)O)CC[C@@H]12 [25(OH)VD2, 25-hydroxyvitamin D2] | comparable to Kd of DBP-VD3 | 160 nM | 2.81 nM | 
4 | C=C1CC[C@H](O)C/C1=C/C=C1\CCC[C@]2(C)[C@@H]([C@H](C)CCCC(C)(C)O)CC[C@@H]12 [25(OH)VD3, 25-hydroxyvitamin D3] |  | 33.7 nM | 1.88 nM | 
5 | 25-hydroxyvitamin D [25(OH)D] |  |  |  | affinity Ka for albumin (albumin): 600000 M⁻¹; affinity Ka for DBP (DBP [2]): 7e+08 M⁻¹

— US20240319212A1, “METHOD OF MEASURING THE ENDOCYTIC VITAMIN D STATUS” (Immundiagnostik AG, priority 2018, published 2024)
